Data published in US20090030024A1, “THIAZOLES AS FUNGICIDES” (priority 2005, published 2009).

Assay: logP determination by retention times (calibration with alkan-2-ones)
Conditions: * HPLC reversed-phase C18, 40° C., mobile phase 0.1% aqueous formic acid and acetonitrile, linear gradient 10% to 95% acetonitrile

SMILES | chromatographic logP | logP
CCc1nc(C)c(-c2ccnc(Nc3ccc(OCC(C)(C)C)nc3)n2)s1 [Example 721, N-[6-(2,2-dimethylpropoxy)pyridin-3-yl]-4-(2-ethyl-4-methyl-1,3-thiazol-5-yl)pyrimidine-2-amine] | 4.23 | –
COCCCNc1nc(C)c(-c2ccnc(Nc3ccccc3)n2)s1 [Example 725, 4-{2-[(3-methoxypropyl)amino]-4-methyl-1,3-thiazol-5-yl}-N-phenylpyrimidine-2-amine] | 1.81 | –
COCCCNc1nc(C)c(-c2ccnc(Nc3cccc(Cl)c3)n2)s1 [Example 726, N-(3-chlorophenyl)-4-{2-[(3-methoxypropyl)amino]-4-methyl-1,3-thiazol-5-yl}pyrimidine-2-amine] | 2.28 | –
COCC(C)Nc1nc(C)c(-c2ccnc(Nc3ccc(N4CCCC4=O)cc3)n2)s1 (centres unmarked) [Example 728, 1-{4-[(4-{2-[(2-methoxy-1-methylethyl)amino]-4-methyl-1,3-thiazol-5-yl}pyrimidin-2-yl)amino]phenyl}pyrrolidin-2-one] | 1.64 | –
COCC(C)Nc1nc(C)c(-c2ccnc(Nc3ccc(C(C)=O)cc3)n2)s1 (centres unmarked) [Example 729, 1-{4-[(4-{2-[(2-methoxy-1-methylethyl)amino]-4-methyl-1,3-thiazol-5-yl}pyrimidin-2-yl)amino]phenyl}ethanone] | 1.92 | –
Cc1nc(N2CCOCC2)sc1-c1ccnc(Nc2ccccc2)n1 [Example 731, 4-(4-methyl-2-morpholin-4-yl-1,3-thiazol-5-yl)-N-phenylpyrimidine-2-amine] | 2.25 | –
CCc1nc(C)c(-c2ccnc(N(C(=O)OC)c3ccccc3)n2)s1 [Example 732, methyl-[4-(2-ethyl-4-methyl-1,3-thiazol-5-yl)pyrimidin-2-yl]phenylcarbamate] | 2.59 | –
CCCC(=O)c1ccc(Nc2nccc(-c3sc(CC)nc3C)n2)cc1 [Example 733, 1-(4-{[4-(2-ethyl-4-methyl-1,3-thiazol-5-yl)pyrimidin-2-yl]amino}phenyl)butan-1-one] | 3.5 | –
CC(=O)c1cccc(Nc2nccc(-c3sc(-c4cccnc4)nc3C)n2)c1 [Example 734, 1-(3-{[4-(4-methyl-2-pyridin-3-yl-1,3-thiazol-5-yl)pyrimidin-2-yl]amino}phenyl)ethanone] | 2.56 | –
COc1cc(Nc2nccc(-c3sc(N4CCOCC4)nc3C)n2)cc(OC)c1OC [Example 735, 4-(4-methyl-2-morpholin-4-yl-1,3-thiazol-5-yl)-N-(3,4,5-trimethoxyphenyl)pyrimidine-2-amine] | 2.07 | –
CC(=O)c1cccc(Nc2nccc(-c3sc(N4CCOCC4)nc3C)n2)c1 [Example 736, 1-(3-{[4-(4-methyl-2-morpholin-4-yl-1,3-thiazol-5-yl)pyrimidin-2-yl]amino}phenyl)ethanone] | 2.16 | –
COCC(C)Nc1nc(C)c(-c2ccnc(Nc3ccc(N)cc3)n2)s1 (centres unmarked) [Example 737, N-(4-{2-[(2-methoxy-1-methylethyl)amino]-4-methyl-1,3-thiazol-5-yl}pyrimidin-2-yl)benzene-1,4-diamine] | 1.68 | –
COCCCNc1nc(C)c(-c2ccnc(Nc3cccc(C(C)=O)c3)n2)s1 [Example 738, 1-{3-[(4-{2-[(3-methoxypropyl)amino]-4-methyl-1,3-thiazol-5-yl}pyrimidin-2-yl)amino]phenyl}ethanone] | 1.75 | –
Cc1nc(N2CCOCC2)sc1-c1ccnc(Nc2cccc(Cl)c2)n1 [Example 745, N-(3-chlorophenyl)-4-(4-methyl-2-morpholin-4-yl-1,3-thiazol-5-yl)pyrimidine-2-amine] | 2.99 | –
CNc1nc(C)c(-c2ccnc(Nc3ccc(O)cc3)n2)s1 [Example 746, 4-({4-[4-methyl-2-(methylamine)-1,3-thiazol-5-yl]pyrimidin-2-yl}amino)phenol] | – | 1.11*
CCc1nc(C)c(-c2ccnc(Nc3cncc(C)c3)n2)s1 [Example 747, 4-(2-ethyl-4-methyl-1,3-thiazol-5-yl)-N-(5-methylpyridin-3-yl)pyrimidine-2-amine] | 1.41 | –
CCc1nc(C)c(-c2ccnc(Nc3ccc(N4CCCC4=O)cc3)n2)s1 [Example 748, 1-(4-{[4-(2-ethyl-4-methyl-1,3-thiazol-5-yl)pyrimidin-2-yl]amino}phenyl)pyrrolidin-2-one] | 2.24 | –
Cc1nc(C)c(-c2ccnc(Nc3ccc(N4CCCC4=O)cc3)n2)s1 [Example 749, 1-(4-{[4-(2,4-dimethyl-1,3-thiazol-5-yl)pyrimidin-2-yl]amino}phenyl)pyrrolidin-2-one] | 1.99 | –
COCCNc1nc(C)c(-c2ccnc(Nc3ccc(F)c(C)c3)n2)s1 [Example 750, N-(4-fluoro-3-methylphenyl)-4-{2-[(2-methoxyethyl)amino]-4-methyl-1,3-thiazol-5-yl}pyrimidine-2-amine] | 2.04 | –
COCCNc1nc(C)c(-c2ccnc(Nc3ccc(C(C)=O)cc3)n2)s1 [Example 751, 1-{4-[(4-{2-[(2-methoxyethyl)amino]-4-methyl-1,3-thiazol-5-yl}pyrimidin-2-yl)amino]phenyl}ethanone] | 1.72 | –
COCCNc1nc(C)c(-c2ccnc(Nc3ccc(N4CCCC4=O)cc3)n2)s1 [Example 752, 1-{4-[(4-{2-[(2-methoxyethyl)amino]-4-methyl-1,3-thiazol-5-yl}pyrimidin-2-yl)amino]phenyl}pyrrolidin-2-one] | 1.51 | –
CNc1nc(C)c(-c2ccnc(Nc3ccc(OC(C)=O)cc3)n2)s1 [Example 754, 4-({4-[4-methyl-2-(methylamine)-1,3-thiazol-5-yl]pyrimidin-2-yl}amino)phenylacetate] | – | 1.73*
CCc1nc(C)c(-c2ccnc(Nc3ccc(F)c(F)c3)n2)s1 [Example 755, N-(3,4-difluorophenyl)-4-(2-ethyl-4-methyl-1,3-thiazol-5-yl)pyrimidine-2-amine] | 3.44 | –
Cc1nc(C)c(-c2ccnc(Nc3ccc(F)c(F)c3)n2)s1 [Example 756, N-(3,4-difluorophenyl)-4-(2,4-dimethyl-1,3-thiazol-5-yl)pyrimidine-2-amine] | 2.99 | –
Cc1nc(C(F)F)c(-c2ccnc(Nc3cccc(Cl)c3)n2)s1 [Example 757, N-(3-chlorophenyl)-4-[4-(difluoromethyl)-2-methyl-1,3-thiazol-5-yl]pyrimidine-2-amine] | 1.41 | –
Cc1nc(C(F)F)c(-c2ccnc(Nc3ccc(CNC(=O)OC(C)(C)C)cc3)n2)s1 [Example 758, tert-butyl-[4-({4-[4-(difluoromethyl)-2-methyl-1,3-thiazol-5-yl]pyrimidin-2-yl}amino)benzyl]carbamate] | 3.2 | –
CCc1nc(C)c(-c2ccnc(Nc3ccc(F)cc3F)n2)s1 [Example 760, N-(2,4-difluorophenyl)-4-(2-ethyl-4-methyl-1,3-thiazol-5-yl)pyrimidine-2-amine] | 3.27 | –
Cc1nc(N(C)C)sc1-c1ccnc(Nc2ccc(N3CCCC3=O)cc2)n1 [Example 761, 1-[4-({4-[2-(dimethylamine)-4-methyl-1,3-thiazol-5-yl]pyrimidin-2-yl}amino)phenyl]pyrrolidin-2-one] | – | 1.6*
CC(=O)Nc1cccc(Nc2nccc(-c3sc(N(C)C)nc3C)n2)c1 [Example 762, N-[3-({4-[2-(dimethylamine)-4-methyl-1,3-thiazol-5-yl]pyrimidin-2-yl}amino)phenyl]acetamide] | – | 1.42*
